The source of these data is patent US20220153751A1, “BIFUNCTIONAL COMPOUNDS” (BioTheryX, Inc., priority 2018, published 2022).

Common to all, as to assay type: cell-based
One experiment deals with T1, CDK9 (Homo sapiens, UniProt P50750).
T1 construct: Whole cell extracts were prepared using RIPA buffer; endogenous in cells; host or cells: MV-4-11
The experiment can be described thus: CDK9 degradation assay (Western blot, MV-4-11 cells). Particulars: 6-8 h; for Dmax at 0.1 µM: MV4-11, 0.1 μM; for Dmax at 1 µM: MV4-11, 1 μM. Summed up:
(§1)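 Immunoblot-based % degradation, scored A–D in 25% steps (D ≥75%). Compound exposure was 6-8 h.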

The next experiment has as its target T2, CDK16 (Homo sapiens, UniProt Q00536).
T2 construct: Whole cell extracts were prepared using RIPA buffer; endogenous in cells; host or cells: MV-4-11
The experiment can be described thus: CDK16 degradation assay (Western blot, MV-4-11 cells). Particulars: 6-8 h; for Dmax at 0.1 µM: MV4-11, 0.1 μM; for Dmax at 1 µM: MV4-11, 1 μM. In outline: as §1

The test system of a further experiment is IL-1β. The experiment can be described thus: IL-1β inhibition assay, LPS-induced PBMCs / CD14+ monocytes (Meso Scale). To be noted: 1 h pretreatment, 100 ng/mL LPS 18-24 h. In outline:
(§2)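 Thawed human PBMCs or CD14+ mobilized peripheral blood monocytes, 200,000 cells/well in RPMI-1640/10% FBS, pretreated with compound or DMSO 1 h, then stimulated with 100 ng/mL LPS for 18-24 h. Supernatant cytokine measured by Meso Scale; % inhibition binned A–D (<50%, 50–70%, 70–90%, ≥90%), fold-change binned A–D (≤0.1, ≤0.5, ≤1, >1).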

A further experiment has as its system IL-6. Description: IL-6 inhibition assay, LPS-induced PBMCs / CD14+ monocytes (Meso Scale). To be noted: 1 h pretreatment, 100 ng/mL LPS 18-24 h. In outline:
as §2

The subject of a further experiment is TNF-α. The experiment can be described thus: TNF-α inhibition assay, LPS-induced PBMCs / CD14+ monocytes (Meso Scale). To be noted: 1 h pretreatment, 100 ng/mL LPS 18-24 h. In outline:
as §2

A further experiment deals with IL-2. Description: IL-2 fold-change assay, anti-CD3 stimulated PBMCs (Mesoscale). To be noted: PBMC, PBMCs on anti-human CD3, 24 h, fold difference from the DMSO control. The method, then:
For the IL-2 analysis, 96 well plates were precoated with 1 μg/mL anti-human CD3 antibody (OK3, eBioscience Inc., San Diego, Calif.). After washing with PBS, the indicated compound was added (50 μL/well) followed by PBMCs diluted at 3-4 million cells/mL (150 μL/well). Plates were incubated for 24 h and the supernatants collected for Mesoscale IL-2 analysis. IL-2 activity is measured as fold difference from the DMSO control.
In Table 6, the % inhibition values are reported as “A”, “B”, “C”, or “D”. “A” represents a % inhibition value of less than 50% (value <50%). “B” represents a % inhibition value of equal to or more than 50% and less than 70% (50%≤value<70%). “C” represents a % inhibition value of equal to or more than 70% and less than 90% (70%≤value<90%). “D” represents a % inhibition value of equal or more than 90% (value ≥90%). In Table 7, the fold-change values are reported as “A”, “B”, “C”, or “D”. “A” represents a fold-change value of equal to or less than 0.1 (value ≤0.1). “B” represents a fold-change value of more than 0.1 and equal to or less than 0.5 (0.1<value≤0.5). “C” represents a fold-change value of more than 0.5 and equal to or less than 1 (0.5<value≤1). “D” represents a fold-change value of more than 1 (value >1).

In the next experiment the test system is MOLM-13 cells. The experiment can be described thus: MOLM-13 cell viability assay (CellTiter-Glo). To be noted: Homo sapiens, MOLM-13, 72 h, 3 days, read-out: MOLM-13 Cell Viability % DMSO at 1 μM. Summed up: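 MOLM-13 cells at 2500 cells/well were exposed to compound for 3 days at 37 °C. Viability was read by CellTiter-Glo luminescence and expressed as % of DMSO control, binned A (<50%), B (50–<70%), C (70–<90%) or D (≥90%).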
(Cellular ATP, detected with luciferase, serves as a proxy for viable cell number.)

A further experiment has as its target T3, IKAROS (Homo sapiens, UniProt Q13422+Q96SW2).
T3 construct: endogenous in cells; host or cells: MV-4-11
The experiment can be described thus: IKAROS degradation assay (Western blot, MV-4-11 cells). Particulars: MV4-11, 6-8 h. In outline:
as §1
Background: In western blotting, separated proteins are transferred to a membrane and probed.

The next experiment has as its target T4, CK1α (Homo sapiens, UniProt P48729+Q96SW2).
T4 construct: Whole cell extracts were prepared using RIPA buffer; endogenous in cells; host or cells: MV-4-11
The experiment can be described thus: CK1α degradation assay (Western blot, MV-4-11 cells). To be noted: MV4-11, 6-8 h. The method, then: MV-4-11 cells were grown in RPMI 1640 media supplemented with 10% fetal bovine serum, streptomycin and penicillin.
Cells were cultured at approximately 10^6 cells per mL and incubated in DMSO or the indicated compound for 6-8 h. Whole cell extracts were prepared using RIPA buffer according to manufacturer's protocol (Pierce). Briefly, 3×10^6 cells were washed once in PBS, the cell pellets were resuspended in RIPA buffer and allowed to incubate for 15 minutes on ice. Cells debris was removed by centrifugation and the cleared whole cell lysates were transferred to new tubes for further analysis.
For Western blot analysis, whole cell protein extracts were separated on 4-12% SDS-polyacrylamide gels, transferred to nitrocellulose and probed with the indicated primary antibodies. Membranes were subsequently washed and probed with the appropriate IRDye secondary antibodies (LI-COR). The signal was detected using the Odyssey Imaging System (LI-COR).
The following antibodies were used in these studies: Anti-eRF3/GSPT1: Abcam, ab126090 (Cambridge, Mass.); Anti-Ikaros: Abcam, ab191394 (Cambridge, Mass.); Anti-CK1α: Abcam, ab108296 (Cambridge, Mass.); Anti-CDK9: Santa Cruz Biotechnology, sc13130 (Dallas, Tex.); Anti-CDK16: Millipore Sigma, HPA001366 (St. Louis, Mo.); 3-actin (8H10comD10) mouse monoclonal antibody: Cell Signaling Technology, #3700 (Danvers, Mass.); IRDye 680RD Goat anti-rabbit antibody: LI-COR, 926-68071 (Lincoln, Nebr.); IRDye 800CW Goat anti-mouse antibody: LI-COR, 926-32210 (Lincoln, Nebr.).
CDK9 activities are shown in Table 4 at two different concentrations. CDK16 activities are shown in Table 5 at two different concentrations. In each of Tables 1-5, the % degradation values are reported as “A”, “B”, “C”, or “D”. “A” represents a % degradation value of less than 25% (value <25%). “B” represents a % degradation value of equal to or more than 25% and less than 50% (25%≤value<50%). “C” represents a % degradation value of equal to or more than 50% and less than 75% (50%≤value<75%). “D” represents a % degradation value of equal to or more than 75% (value ≥75%).

A further experiment has as its target T5, GSPT1 (Homo sapiens, UniProt P15170+Q96SW2).
T5 construct: Whole cell extracts were prepared using RIPA buffer; endogenous in cells; host or cells: MV-4-11
Description: GSPT1 degradation assay (Western blot, MV-4-11 cells). Particulars: MV4-11, 6-8 h. Summed up:
as §1

One may read the Dmax as the largest share of the target that was removed. A higher Dmax goes with deep degradation. Usually inhibition stands for the change of the read-out against control, counted positive when it falls. By fold induction is commonly meant the signal under treatment as a multiple of the control signal. What is called viability is a per cent measure of how many cells are alive, often set against a control.

T1 sequence (P50750 whole entry): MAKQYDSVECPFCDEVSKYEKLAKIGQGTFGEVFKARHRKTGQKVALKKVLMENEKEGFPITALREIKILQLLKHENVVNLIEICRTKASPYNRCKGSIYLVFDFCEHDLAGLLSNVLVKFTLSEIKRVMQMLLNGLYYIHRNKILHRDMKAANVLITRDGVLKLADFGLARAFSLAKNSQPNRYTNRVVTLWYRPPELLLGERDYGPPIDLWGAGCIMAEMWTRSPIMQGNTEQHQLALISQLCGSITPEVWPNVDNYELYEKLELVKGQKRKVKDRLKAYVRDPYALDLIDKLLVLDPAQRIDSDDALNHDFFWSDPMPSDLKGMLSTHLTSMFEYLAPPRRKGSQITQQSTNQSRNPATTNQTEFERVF
T2 sequence (Q00536 whole entry): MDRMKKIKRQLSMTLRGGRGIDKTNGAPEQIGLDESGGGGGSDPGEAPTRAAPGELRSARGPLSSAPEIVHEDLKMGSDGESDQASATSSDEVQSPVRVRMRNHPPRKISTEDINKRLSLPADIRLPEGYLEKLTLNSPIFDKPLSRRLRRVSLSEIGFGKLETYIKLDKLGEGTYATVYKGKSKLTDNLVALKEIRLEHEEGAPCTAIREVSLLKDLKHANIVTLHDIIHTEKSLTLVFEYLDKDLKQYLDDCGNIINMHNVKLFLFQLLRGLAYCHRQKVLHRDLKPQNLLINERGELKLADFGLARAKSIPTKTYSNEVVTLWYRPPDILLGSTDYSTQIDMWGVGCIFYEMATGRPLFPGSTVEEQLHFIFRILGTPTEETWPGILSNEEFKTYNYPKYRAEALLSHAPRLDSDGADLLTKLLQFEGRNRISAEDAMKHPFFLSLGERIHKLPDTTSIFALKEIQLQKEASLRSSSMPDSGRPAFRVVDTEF
T4 sequence (P48729 whole entry): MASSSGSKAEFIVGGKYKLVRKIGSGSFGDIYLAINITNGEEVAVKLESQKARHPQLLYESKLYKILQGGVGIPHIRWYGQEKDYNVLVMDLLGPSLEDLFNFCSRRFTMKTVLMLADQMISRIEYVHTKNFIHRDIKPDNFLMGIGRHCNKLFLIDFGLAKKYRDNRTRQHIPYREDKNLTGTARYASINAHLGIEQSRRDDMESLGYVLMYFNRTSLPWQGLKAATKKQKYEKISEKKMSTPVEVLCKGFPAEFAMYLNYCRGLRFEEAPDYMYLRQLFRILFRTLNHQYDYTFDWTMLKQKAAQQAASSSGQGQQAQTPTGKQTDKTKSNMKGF
T4 sequence (Q96SW2 whole entry): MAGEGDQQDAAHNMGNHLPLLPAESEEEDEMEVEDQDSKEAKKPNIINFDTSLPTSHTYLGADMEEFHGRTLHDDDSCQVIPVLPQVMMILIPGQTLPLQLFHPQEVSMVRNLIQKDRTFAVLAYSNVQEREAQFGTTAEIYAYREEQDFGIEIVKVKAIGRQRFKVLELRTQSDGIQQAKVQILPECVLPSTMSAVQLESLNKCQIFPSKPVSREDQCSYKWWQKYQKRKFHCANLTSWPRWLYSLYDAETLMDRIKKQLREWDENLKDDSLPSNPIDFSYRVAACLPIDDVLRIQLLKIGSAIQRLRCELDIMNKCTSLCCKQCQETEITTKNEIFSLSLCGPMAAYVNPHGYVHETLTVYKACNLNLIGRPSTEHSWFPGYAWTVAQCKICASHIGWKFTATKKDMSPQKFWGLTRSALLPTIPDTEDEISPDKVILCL
T4 sequence (Q16531 whole entry partner): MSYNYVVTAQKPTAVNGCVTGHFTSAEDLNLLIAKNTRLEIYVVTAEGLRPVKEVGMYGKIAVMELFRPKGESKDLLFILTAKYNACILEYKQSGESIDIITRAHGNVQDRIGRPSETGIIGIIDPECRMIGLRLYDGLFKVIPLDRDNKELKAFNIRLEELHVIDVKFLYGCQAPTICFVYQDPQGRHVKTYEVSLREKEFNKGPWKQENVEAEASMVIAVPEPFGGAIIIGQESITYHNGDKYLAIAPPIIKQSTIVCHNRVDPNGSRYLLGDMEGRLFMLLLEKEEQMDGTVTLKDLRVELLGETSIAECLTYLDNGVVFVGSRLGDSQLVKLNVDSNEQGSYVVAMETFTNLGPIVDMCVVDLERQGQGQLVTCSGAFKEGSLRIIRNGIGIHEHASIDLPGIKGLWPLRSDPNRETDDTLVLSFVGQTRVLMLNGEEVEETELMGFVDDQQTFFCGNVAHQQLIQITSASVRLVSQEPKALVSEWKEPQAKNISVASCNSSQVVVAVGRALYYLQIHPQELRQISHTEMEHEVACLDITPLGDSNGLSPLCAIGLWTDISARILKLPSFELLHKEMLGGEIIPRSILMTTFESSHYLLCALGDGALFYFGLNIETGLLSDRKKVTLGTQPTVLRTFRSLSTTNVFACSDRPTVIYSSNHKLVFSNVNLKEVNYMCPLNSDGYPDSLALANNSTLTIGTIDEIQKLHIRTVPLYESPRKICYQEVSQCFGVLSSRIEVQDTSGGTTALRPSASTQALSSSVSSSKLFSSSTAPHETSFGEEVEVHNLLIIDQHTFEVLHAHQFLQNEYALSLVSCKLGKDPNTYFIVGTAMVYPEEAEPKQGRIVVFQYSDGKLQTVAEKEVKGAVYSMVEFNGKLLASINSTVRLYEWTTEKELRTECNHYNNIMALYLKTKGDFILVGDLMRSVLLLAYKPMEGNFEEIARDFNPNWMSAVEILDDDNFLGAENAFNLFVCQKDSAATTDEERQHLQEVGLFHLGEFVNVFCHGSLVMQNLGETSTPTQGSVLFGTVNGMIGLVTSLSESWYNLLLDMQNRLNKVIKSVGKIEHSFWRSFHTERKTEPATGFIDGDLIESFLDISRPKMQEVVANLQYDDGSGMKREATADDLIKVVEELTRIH
T5 sequence (P15170 whole entry): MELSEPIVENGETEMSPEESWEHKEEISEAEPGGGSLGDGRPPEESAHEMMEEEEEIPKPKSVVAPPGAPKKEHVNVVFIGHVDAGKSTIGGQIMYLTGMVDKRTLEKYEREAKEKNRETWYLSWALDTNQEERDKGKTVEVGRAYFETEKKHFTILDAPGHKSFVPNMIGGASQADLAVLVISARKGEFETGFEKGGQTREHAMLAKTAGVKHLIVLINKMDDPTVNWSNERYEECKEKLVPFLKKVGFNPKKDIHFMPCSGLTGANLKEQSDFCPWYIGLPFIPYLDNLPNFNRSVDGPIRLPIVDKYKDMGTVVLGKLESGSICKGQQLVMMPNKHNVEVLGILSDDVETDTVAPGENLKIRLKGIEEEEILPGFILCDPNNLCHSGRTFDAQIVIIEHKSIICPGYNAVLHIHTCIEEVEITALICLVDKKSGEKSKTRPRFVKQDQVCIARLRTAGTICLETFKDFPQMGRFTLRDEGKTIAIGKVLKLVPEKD
T5 sequence (Q96SW2 whole entry): as the sequence (Q96SW2 whole entry) above
T5 sequence (Q16531 whole entry partner): as the sequence (Q16531 whole entry partner) above
T3 sequence (Q13422 whole entry): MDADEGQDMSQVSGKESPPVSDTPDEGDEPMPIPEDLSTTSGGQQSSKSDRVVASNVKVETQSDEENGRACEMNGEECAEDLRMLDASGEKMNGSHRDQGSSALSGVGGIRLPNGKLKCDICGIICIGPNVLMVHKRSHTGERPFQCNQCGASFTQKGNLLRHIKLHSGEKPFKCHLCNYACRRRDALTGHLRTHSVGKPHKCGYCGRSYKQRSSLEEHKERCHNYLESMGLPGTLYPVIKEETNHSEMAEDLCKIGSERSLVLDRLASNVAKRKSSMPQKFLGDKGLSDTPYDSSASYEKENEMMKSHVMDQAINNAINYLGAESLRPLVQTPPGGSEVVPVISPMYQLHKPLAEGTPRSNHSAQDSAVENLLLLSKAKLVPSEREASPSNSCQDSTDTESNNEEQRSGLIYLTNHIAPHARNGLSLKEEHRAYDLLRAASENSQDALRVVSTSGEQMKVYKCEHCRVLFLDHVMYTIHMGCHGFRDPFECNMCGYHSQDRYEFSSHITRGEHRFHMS
T3 sequence (Q96SW2 whole entry): as the sequence (Q96SW2 whole entry) above
T3 sequence (Q16531 whole entry partner): as the sequence (Q16531 whole entry partner) above

Turning to `CC(C)(C)c1cnc(CSc2cnc(NC(=O)C3CCN(CC(=O)NCCOCCOCCNC(=O)NCc4cc5c(s4)C(=O)N(C4CCC(=O)NC4=O)C5)CC3)s2)o1` (stereo not drawn) [Compound 13, N-(5-(((5-(tert-butyl)oxazol-2-yl)methyl)thio)thiazol-2-yl)-1-(1-(5-(2,6-dioxopiperidin-3-yl)-6-oxo-5,6-dihydro-4H-thieno[2,3-c]pyrrol-2-yl)-3,14-dioxo-7,10-dioxa-2,4,13-triazapentadecan-15-yl)piperidine-4-carboxamide], the results for the Dmax at 0.1 µM on CDK9 and on CDK16 were 50 to 75% and less than 25%, respectively. Besides, the Dmax at 1 µM is not below 75% on CDK9 and less than 25% at CDK16. Besides, the inhibition at 1 µM with IL-1β, in the experiment with IL-6 and with TNF-α was more than 90% each time. Besides, in the experiment on IL-2, the fold induction at 1 µM was not above 0.1. Moreover, the viability at 1 µM in the experiment on MOLM-13 cells is more than 90%.

Consider `CC(C)(C)c1cnc(CSc2cnc(NC(=O)C3CCN(CC(=O)NCCCCCNCC(=O)NCc4scc5c4CN(C4CCC(=O)NC4=O)C5=O)CC3)s2)o1` (stereo not drawn) [Compound 33, N-(5-(((5-(tert-butyl)oxazol-2-yl)methyl)thio)thiazol-2-yl)-1-(2-((5-((2-(((5-(2,6-dioxopiperidin-3-yl)-4-oxo-5,6-dihydro-4H-thieno[3,4-c]pyrrol-1-yl)methyl)amino)-2-oxoethyl)amino)pentyl)amino)-2-oxoethyl)piperidine-4-carboxamide], for which the Dmax at 1 µM at IKAROS is 50 to 75%; at CK1α, not below 75%; on GSPT1, not below 75%; on CDK9, not below 75%; on CDK16, 50 to 75%. Besides, the Dmax at 0.1 µM at CDK9 is not below 75%; at CDK16, less than 25%. For the same compound, the viability at 1 µM in the experiment on MOLM-13 cells is more than 90%.

Consider `Cn1ncc(-c2nc(N[C@H]3CC[C@H](NCC(=O)NCCCCNCC(=O)NCc4cc5c(s4)C(=O)N(C4CCC(=O)NC4=O)C5)CC3)ncc2Cl)c1CC1CC1` (stereo partly drawn) [Compound 35, 2-(((1r,4r)-4-((5-chloro-4-(5-(cyclopropylmethyl)-1-methyl-1H-pyrazol-4-yl)pyrimidin-2-yl)amino)cyclohexyl)amino)-N-(4-((2-(((5-(2,6-dioxopiperidin-3-yl)-6-oxo-5,6-dihydro-4H-thieno[2,3-c]pyrrol-2-yl)methyl)amino)-2-oxoethyl)amino)butyl)acetamide], for which the Dmax at 1 µM on IKAROS was 50 to 75%; on CK1α it was 25 to 50%; on GSPT1, not below 75%; at CDK9 it was 25 to 50%; on CDK16, 50 to 75%. Besides, the Dmax at 0.1 µM on CDK9 was 25 to 50%; on CDK16, less than 25%. The viability at 1 µM in the experiment with MOLM-13 cells was more than 90%.

Turning to `Cn1ncc(-c2nc(N[C@H]3CC[C@H](NCC(=O)NCCCCNCC(=O)NCc4scc5c4CN(C4CCC(=O)NC4=O)C5=O)CC3)ncc2F)c1CC1CC1` (stereo partly drawn) [Compound 39, 2-(((1r,4r)-4-((4-(5-(cyclopropylmethyl)-1-methyl-1H-pyrazol-4-yl)-5-fluoropyrimidin-2-yl)amino)cyclohexyl)amino)-N-(4-((2-(((5-(2,6-dioxopiperidin-3-yl)-4-oxo-5,6-dihydro-4H-thieno[3,4-c]pyrrol-1-yl)methyl)amino)-2-oxoethyl)amino)butyl)acetamide], the Dmax at 1 µM is 25 to 50% at IKAROS; 25 to 50% on CK1α; 50 to 75% at GSPT1; not below 75% on CDK9; not below 75% at CDK16. Also, the Dmax at 0.1 µM on CDK9 was 25 to 50%; at CDK16 it was less than 25%. For the same compound, in the experiment on MOLM-13 cells, the viability at 1 µM was more than 90%.

In the case of `Cn1ncc(-c2nc(N[C@H]3CC[C@H](NCC(=O)NCCNCC(=O)NCc4cc5c(s4)C(=O)N(C4CCC(=O)NC4=O)C5)CC3)ncc2Cl)c1CC1CC1` (stereo partly drawn) [Compound 40, 2-(((1r,4r)-4-((5-chloro-4-(5-(cyclopropylmethyl)-1-methyl-1H-pyrazol-4-yl)pyrimidin-2-yl)amino)cyclohexyl)amino)-N-(2-((2-(((5-(2,6-dioxopiperidin-3-yl)-6-oxo-5,6-dihydro-4H-thieno[2,3-c]pyrrol-2-yl)methyl)amino)-2-oxoethyl)amino)ethyl)acetamide], the Dmax at 1 µM was 50 to 75% on IKAROS; 25 to 50% on CK1α; not below 75% on GSPT1; not below 75% at CDK9; 50 to 75% on CDK16. In addition, the Dmax at 0.1 µM was in the range of 50 to 75% at CDK9 and 25 to 50% at CDK16. Further, the viability at 1 µM in the experiment with MOLM-13 cells was 70 to 90%.

For the compound `Cn1ncc(-c2nc(N[C@H]3CC[C@H](NCC(=O)NCCOCCOCCOCCNC(=O)NCc4cc5c(s4)C(=O)N(C4CCC(=O)NC4=O)C5)CC3)ncc2Cl)c1CC1CC1` (stereo partly drawn) [Compound 46, 2-(((1r,4r)-4-((5-chloro-4-(5-(cyclopropylmethyl)-1-methyl-1H-pyrazol-4-yl)pyrimidin-2-yl)amino)cyclohexyl)amino)-N-(1-(5-(2,6-dioxopiperidin-3-yl)-6-oxo-5,6-dihydro-4H-thieno[2,3-c]pyrrol-2-yl)-3-oxo-7,10,13-trioxa-2,4-diazapentadecan-15-yl)acetamide], the inhibition at 1 µM in the experiment on IL-1β was in the range of 70 to 90%; in the experiment on IL-6, 70 to 90%; in the experiment with TNF-α, 50 to 70%. Besides, the fold induction at 1 µM with IL-2 lay in the range of 0.1 to 0.5. Also, in the experiment with MOLM-13 cells, the viability at 1 µM is more than 90%.

In the case of `Cn1ncc(-c2cc(N[C@H]3CC[C@H](NCCCCCCCCNC(=O)NCc4cc5c(s4)C(=O)N(C4CCC(=O)NC4=O)C5)CC3)ncc2F)c1CC1CC1` (stereo partly drawn) [Compound 59, 1-(8-(((1r,4r)-4-((4-(5-(cyclopropylmethyl)-1-methyl-1H-pyrazol-4-yl)-5-fluoropyridin-2-yl)amino)cyclohexyl)amino)octyl)-3-((5-(2,6-dioxopiperidin-3-yl)-6-oxo-5,6-dihydro-4H-thieno[2,3-c]pyrrol-2-yl)methyl)urea], the inhibition at 1 µM with IL-1β is 70 to 90%; in the experiment on IL-6 it was 70 to 90%; with TNF-α, less than 50%. Moreover, the fold induction at 1 µM in the experiment with IL-2 fell in the range of 0.5 to 1. In the experiment on MOLM-13 cells, the viability at 1 µM is more than 90%.
